Laboratory results published in patent US9953129B2, “Patient stratification and determining clinical outcome for cancer patients” (Agency for Science, Technology and Research, priority 2011, dated 2018).

Tests used:
Assay type in all cases: cell-based
NBT-II cells [1] = experiment: EMT spot migration assay, HGF induced EMT; details: EMT induced by HGF (4 ng/mL), read-out: Cell Dispersion IC50 (nM) HGF
Description: (§1) Stably transfected mcherry fluorescence-labeled NET-II cells are maintained in DMEM supplemented with 10% fetal bovine serum (FBS, Thermo Scientific), 1 μg/mL puromycin (Sigma), 100 units/mL penicillin−100 units/mL streptomycin (1×pen-strep, Invitrogen) and 2 mM L-glutamine (Invitrogen).
(§2) Test compounds were purchased from various vendors (Selleck Chemicals, Sigma Aldrich, SYN|thesis Med Chem, and Tocris Bioscience). For screening studies, test compounds at both 0.25 mM and 1.0 mM concentrations in DMSO are prepared, each occupying a single well in columns 2 to 11 of 96-well V-bottom plates (Greiner). For dose response studies, selected test compounds were prepared in duplicate wells and serial diluted in DMSO, starting a 1.0 mM concentration. Compound stock plates were stored at −20° C. and thawed at room temperature before use.
(§3) A schematic for the spot migration assay is illustrated in FIG. 2. Cells were grown up to 80% confluency in tissue culture flasks prior to cell plating. Cells were first trypsinized, concentrated and re-suspended to a density of 5×10^6 cell/mL in CO2 independent medium (Invitrogen) supplemented with 10% FBS. The cell suspension was then evenly aliquoted into the wells of 2 columns of a 96-well V-bottom plate. Using a robotic liquid handling station (Bravo, Agilent Technologies), 0.5 μL of cell suspension was transferred from the 2 columns of the cell suspension-loaded plate and deposited into the center of the wells of 2 columns of a 96-well clear bottom, black assay plate (Corning). This process was repeated six times so that all 96 wells of the assay plate were deposited with a cell suspension spot. The plate was then sealed to minimize evaporation of the cell suspension spots and transferred to a 37° C., 5% CO2 incubator to allow for cells to attach to the culture surface. After one hour, the plate was gently washed with medium once to remove unattached cells, refreshed with 100 μL assay medium (DMEM supplemented with 10% FBS, 1× pen-strep and 2 mM L-glutamine), and then further incubated to allow for cell-cell contacts to establish in the cell colonies.
After 4 hours of incubation, the cell colonies for each well were imaged using a confocal microplate imager (MetaXpress Ultra, Molecular Devices) with 10× Plan Fluor objective, 561 nm laser excitation and 593/40 nm emission filter configuration. Four tiled, non-overlapping images were acquired around the center of each well, which were then stitched together during image analysis to generate a montage covering an area of 3.2 mm×3.2 mm. These images (T1) represent the initial state of the cell colonies before EMT induction.
After the T1 images are acquired, 1 μL of test compounds were transferred from compound stock plates and added to the assay plates. […]

NBT-II cells [2] = experiment: EMT spot migration assay, IGF-1 induced EMT; details: EMT induced by IGF-1 (150 ng/mL), read-out: Cell Dispersion IC50 (nM) IGF-1
Description: as §1, §2
as §3, with “After one hour, the plate was gently washed with medium once to remove unattached cells, refreshed with 100 μL assay medium (DMEM supplemented with 10% FBS, 1× pen-strep and 2 mM L-glutamine), and then further incubated to allow for cell-cell contacts to establish in the cell colonies.” left out

NBT-II cells [3] = experiment: EMT spot migration assay, EGF induced EMT; details: for IC50: EMT induced by EGF (20 ng/mL), NBT-II cells, read-out: Cell Dispersion IC50 (nM) EGF
Description: as §1, §2, §3
Four tiled, non-overlapping images were acquired around the center of each well, which were then stitched together during image analysis to generate a montage covering an area of 3.2 mm×3.2 mm. These images (T1) represent the initial state of the cell colonies before EMT induction.
After the T1 images are acquired, 1 μL of test compounds were transferred from compound stock plates and added to the assay plates. […] The cultures were then further incubated overnight.
The next day, 50 μL of growth factor containing medium was added each well of the assay plates. For each of the EGF, HGF or IGF-1 induced EMT spot migration assays, the final growth factor concentrations was adjusted in each well to be 20 ng/mL EGF (Sigma), 4 ng/mL HGF (Calbiochem) or 150 ng/mL IGF-1 (R&D Systems), respectively. The cultures were then incubated for another 24 hours, to allow for EMT and sufficient cell motility/dispersion to occur in the cell colonies.
Finally, the cell colonies were imaged again using the confocal microplate imager as described above. These images (T2) represent the final state of the cell colonies after compound treatment and EMT induction. The acquired T1 and T2 image sets for each assay plate were then subjected to image analysis.
Acquired image sets were loaded into image analysis routine developed using Metamorph software. Briefly, a complete image of the entire cell colony in a well was first obtained by stitching the four tiled, non-overlapping images together. Image analysis consists of counting the cell number and measuring the area occupied by the cells. The positive nuclei were segmented using a wavelet decomposition scheme to remove the photonic noise and the inhomogeneous background. A watershed procedure was used to refine the result by separating the confluent nuclei.

SKOV3 cells = experiment: EMT reversal assay (morphology, Western blot) in SKOV3; details: SKOV3, 2 μM for 3 days
Description: (§4) SKOV3, HEY and OVCAR-2 cells were maintained in RPMI (Invitrogen) supplemented with 10% fetal bovine serum (FBS, Thermo Scientific), 1 μg/mL puromycin (Sigma), 100 units/mL penicillin−100 units/mL streptomycin (1× pen-strep, Invitrogen) and 2 mM L-glutamine (Invitrogen). AZD0530 and BIBF-1120 were purchased from Selleck Chemicals and SYN|thesis Med Chem respectively. DMSO was used as a vehicle to dissolve both compounds. A stock concentration of 10 mM was prepared for both compounds and stored at −20° C. and aliquots were thawed at room temperature before use. Cells were grown up to 80% confluency in tissue culture flasks prior to cell plating. Cells were first trypsinized, concentrated and re-suspended to a density of 1×10^6 cell/mL in RPMI supplemented with 10% FBS. For each cell lines, 1×10^5 cells were plated onto 100 mm cell culture treated dishes (Nunc) for each condition. The cells were then allowed to attach to the culture dish surface and grow overnight in 37° C., 5% CO2 incubator. In drug conditions, the cells were then incubated with each of the compounds at a final concentration of 2 μM for 3 days to allow cell-cell contacts to establish in the dispersed culture. The medium was aspirated from the culture dishes and the cells were washed with PBS Ca^2+, Mg^2+ before they were snap-frozen with liquid nitrogen. Cells were lysed with RIPA buffer (Sigma) supplemented with protease inhibitor cocktail (Calbiochem) and phosphatase inhibitor cocktail (Roche). Protein concentration was measured using BCA (Pierce) protocol provided by the manufacturer. 8% polyacrylamide gels were used for the separation of proteins and transferred to PDVF membranes (Millipore). Membranes were blocked in 5% non-fat milk (Bio-rad) and incubated at 4 degree Celsius overnight with primary antibodies. E-cadherin antibody was purchased from BD laboratories, MMP13 antibody was purchased from Millipore and Tubulin was purchased from Sigma. […] The raw intensity of the protein bands were quantified using GeneTools software (Syngene).

OVCAR-2 cells = experiment: EMT reversal assay (morphology, Western blot) in OVCAR-2; details: OVCAR-2, 2 μM for 3 days
Description: as §4

HEY cells = experiment: EMT reversal assay (morphology, Western blot) in HEY; details: 2 μM for 3 days
Description: as §4

| Compound | IC50 (NBT-II cells [1]) | IC50 (NBT-II cells [2]) | IC50 (NBT-II cells [3]) | also measured |
| --- | --- | --- | --- | --- |
| Cn1cnc2c(F)c(Nc3ccc(Br)cc3Cl)c(C(=O)NOCCO)cc21 [AZD 6244] | 471 nM | 534 nM |  |  |
| COc1cc2ncnc(Nc3cccc(Cl)c3)c2cc1OC [AG 1478] |  |  | 350 nM | Cell Dispersion ratio (NBT-II cells [3]; PosCtrl condition: [AG1478]=6.67 microM and [EGF]=20 ng/mL, NegCtrl 2.50±0.12): 1.48±0.05 |
| Cn1cc(-c2ccc3nnc(C(F)(F)c4ccc5ncccc5c4)n3n2)cn1 [JNJ.38877605] | 43 nM |  |  |  |
| CN1CCN(CCOc2cc(OC3CCOCC3)c3c(Nc4c(Cl)ccc5c4OCO5)ncnc3c2)CC1 [AZD 0530] | 650 nM |  | 565 nM | Morphology after treatment (SKOV3 cells; vs DMSO): restored the epithelioid-like morphology; E-cadherin protein levels (Western blot) (SKOV3 cells; vs vehicle): greater increase; MMP13 protein levels (Western blot) (SKOV3 cells; vs vehicle): greater reduction; Morphology after treatment (OVCAR-2 cells; vs DMSO): formed tighter cobblestone-like cell colonies; E-cadherin protein levels (Western blot) (OVCAR-2 cells; vs vehicle): increased; MMP13 protein levels (Western blot) (OVCAR-2 cells; vs vehicle): reduced; Morphology after treatment (HEY cells; vs DMSO): restored the epithelioid-like morphology; E-cadherin protein levels (Western blot) (HEY cells; vs vehicle): greater increase; MMP13 protein levels (Western blot) (HEY cells; vs vehicle): greater reduction |
| Cc1ccc(-c2nn(C(C)(C)C)c3ncnc(N)c23)cc1 [PP 1] |  |  | 1720 nM |  |

The next lines start with results.

| IC50 (NBT-II cells [1]) | IC50 (NBT-II cells [2]) | IC50 (NBT-II cells [3]) | Compound | also measured |
| --- | --- | --- | --- | --- |
|  |  | 6600 nM | Cc1cc(N2CCOCC2)cc2[nH]c(-c3c(NC[C@@H](O)c4cccc(Cl)c4)cc[nH]c3=O)nc12 [BMS 536924] |  |
|  | 490 nM |  | CS(=O)(=O)N1CCN(Cc2cc3nc(-c4cccc5[nH]ncc45)nc(N4CCOCC4)c3s2)CC1 [GDC-0941] |  |
| 970 nM | 580 nM | 510 nM | S=C(NCc1ccc2c(c1)OCO2)N1CCN(c2ncnc3c2oc2ccccc23)CC1 [MP-470] |  |
|  |  | 590 nM | COc1cc2ncnc(Nc3ccc(O)c(Br)c3)c2cc1OC [WHI-P 154] |  |
